Reference: the NIST ThermoML archive (doi:10.1021/je049788h)
± gives the expanded uncertainty stated by the source.

Conditions: 101.3 kPa, Liquid; for viscosity: Capillary tube (Ostwald / Ubbelohde) method; for mass density: Vibrating tube method

COCCOCCOCCOCCOC [2,5,8,11,14-pentaoxapentadecane]
Conditions	mass density [kg/m3]	viscosity [mPa·s]
298.15 K	1006.65 ± 0.51	3.38 ± 0.04
313.15 K	993.28 ± 0.51	2.42 ± 0.03
323.15 K	984.05 ± 0.5	2.004 ± 0.026
333.15 K	974.8 ± 0.5	1.69 ± 0.02
343.15 K	965.55 ± 0.49	1.42 ± 0.02
